Read-outs that look alike come from different tables or passages of the source.
Legend:
P. falciparum NF54 = experiment: In vitro microplate assay against P. falciparum (3H-hypoxanthine incorporation); format: cell-based, Plasmodium falciparum; settings: for S.I. = IC50 (Cyt.)/IC50 (P.f.NF54): L-6 cells vs P.f. NF54; for IC50: average of four determinations, read-out: P.f. NF54 IC50
Experimental: In vitro activity against the erythrocytic stages of P. falciparum was determined using a ^3H-hypoxanthine incorporation assay, using the drug sensitive NF54 strain [37]. […] The 96-well plates were incubated in a humidified atmosphere at 37 °C, 4% CO2, 3% O2 and 93% N2. After 48 h, 0.05 mL of ^3H-hypoxanthine (=0.5 µCi) was added to each well of the plate. The plates were incubated for a further 24 h under the same conditions. The plates were then harvested with a Betaplate cell harvester (Wallac, Zurich, Switzerland). The red blood cells were transferred onto a glass fiber filter and washed with distilled water. The dried filters were inserted into a plastic foil with 10 mL of scintillation fluid and counted in a Betaplate liquid scintillation counter (Wallac, Zurich, Switzerland). The IC50 values were calculated from sigmoidal inhibition curves by linear regression using Microsoft Excel. Chloroquine (Sigma C6628) was used as control.

[1] = In vitro cytotoxicity with L-6 cells (resazurin); format: cell-based, rat; settings: rat
Experimental: Serial drug dilutions of 11 3-fold dilution steps covering a range from 100 to 0.002 μg/mL were prepared. After 70 h of incubation, the plates were inspected under an inverted microscope to assure the growth of the controls and sterile conditions. […] The plates were read with a Spectramax Gemini XS microplate fluorometer (Molecular Devices Cooperation, Sunnyvale, CA, USA) using an excitation wavelength of 536 nm and an emission wavelength of 588 nm. The IC50 values were calculated by linear regression from the sigmoidal dose inhibition curves using SoftmaxPro software Version 8.2.1 (Molecular Devices Cooperation, Sunnyvale, CA, USA). Podophyllotoxin (Sigma P4405) was used as control.

CYP3A4 = CYP3A4 (Homo sapiens, UniProt P08684); experiment: Cytochrome P450 3A4 inhibition assay (P450-Glo, Luciferin-IPA); settings: recombinant human CYP3A4 Supersomes (+ oxidoreductase + b5), pH 7.4, probe Luciferin-IPA
Experimental: The CYP3A4 inhibition assay was performed using 96-well white plates (Greiner Bio-One) at a pH of 7.4. […] Stock solutions were further diluted to a final concentration of 20 µM using water (HPLC grade). The luciferin IPA stock solution (3 mM) was diluted to a final concentration of 0.3 mM using water (HPLC grade). The CYP3A4 reaction mixture was prepared by mixing water (HPLC grade) with potassium phosphate buffer (1 M), luciferin IPA (0.3 mM) and CYP3A4 membrane (1 pmol/µL). The control reaction mixture was prepared using water (HPLC grade), potassium phosphate buffer (1 M), luciferin IPA (0.3 mM) and membrane without CYP activity (1 pmol/µL). Solutions A and B of the NADPH regeneration system were mixed and HPLC grade water was added. The reconstituted luciferin detection reagent was prepared by mixing the reconstituted buffer with esterase with the luciferin detection reagent. Then, solutions of test compounds and standard were added to the wells of the 96-well white plate; each was tested in triplicate. The CYP3A4 reaction mixture was added to each well and the plate was incubated for 10 min at room temperature. After that, the NADPH regeneration system was added, inducing the reaction followed by an incubation time of 10 min at ambient temperature. By adding the reconstituted luciferin detection reagent, the reaction was terminated and a luminescent signal was formed. Luminescence was measured by a SpectraMax M3 UV plate reader (Molecular Devices). The relative light units (RLU) were received from a calibration curve with beetle luciferin. […] The CYP3A4 inhibition (%) was calculated from the RLU.

[2] = Plasmodium falciparum, NF54, chloroquine-sensitive strain NF54
[3] = chloroquine-sensitive strain NF54

Chain of CYP3A4 (P08684 2-503 limits assumed): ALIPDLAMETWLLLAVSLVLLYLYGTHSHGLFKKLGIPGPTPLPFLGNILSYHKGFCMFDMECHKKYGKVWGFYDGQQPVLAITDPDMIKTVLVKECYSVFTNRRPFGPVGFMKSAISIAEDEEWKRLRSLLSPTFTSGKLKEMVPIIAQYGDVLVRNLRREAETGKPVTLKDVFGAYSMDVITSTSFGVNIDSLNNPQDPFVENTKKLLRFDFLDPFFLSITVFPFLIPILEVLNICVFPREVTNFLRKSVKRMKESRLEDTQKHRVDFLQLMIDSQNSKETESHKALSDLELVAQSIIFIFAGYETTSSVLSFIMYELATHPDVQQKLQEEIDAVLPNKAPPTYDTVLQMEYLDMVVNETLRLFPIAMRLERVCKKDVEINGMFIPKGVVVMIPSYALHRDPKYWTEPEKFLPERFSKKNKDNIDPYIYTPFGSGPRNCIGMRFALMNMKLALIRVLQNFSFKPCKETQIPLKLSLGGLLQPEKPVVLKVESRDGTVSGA

SMILES | S.I. = IC50 (Cyt.)/IC50 (P.f.NF54) (P. falciparum NF54) | IC50 (P. falciparum NF54; [2]) [µM] | melting point [°C] | inhibition at 10 min, 20 µM (CYP3A4) [%] | IC50 (P. falciparum NF54; [3]) [µM] | IC50 at 72 h [1] [µM]
CCOc1cc(-c2nonc2NC(=O)c2cccc(C)c2)ccc1OC [Compound 51, N-[4-(3-Ethoxy-4-methoxyphenyl)-1,2,5-oxadiazol-3-yl]-3-methylbenzamide] | 1526 | 0.034 | 280 | 66 | – | 51.9
O=C(Nc1nonc1-c1cccc([N+](=O)[O-])c1)c1ccccc1 [Compound 41, N-[4-(3-Nitrophenyl)-1,2,5-oxadiazol-3-yl]benzamide] | 0.666 | 9.11 | 179 | 82 | – | 6.07
O=C(Nc1nonc1-c1ccc(F)cc1)c1cccc(F)c1 [Compound 45, 3-Fluoro-N-[4-(4-fluorophenyl)-1,2,5-oxadiazol-3-yl]benzamide] | 1.000 | 11.2 | 169 | 60 | – | 11.2
O=C(Nc1nonc1-c1cccc([N+](=O)[O-])c1)c1cccc(F)c1 [Compound 43, 3-Fluoro-N-[4-(3-nitrophenyl)-1,2,5-oxadiazol-3-yl]benzamide] | 0.104 | 26.7 | 174 | 79 | – | 2.77
O=C(Nc1nonc1-c1cccc([N+](=O)[O-])c1)c1cccc(C(F)(F)F)c1 [Compound 44, N-[4-(3-Nitrophenyl)-1,2,5-oxadiazol-3-yl]-3-(trifluoromethyl)benzamide] | 0.198 | 8.64 | – | 94 | – | 1.71
O=C(Nc1nonc1-c1ccc([N+](=O)[O-])cc1)c1cccc(C(F)(F)F)c1 [Compound 40, N-[4-(4-Nitrophenyl)-1,2,5-oxadiazol-3-yl]-3-(trifluoromethyl)benzamide] | 0.473 | 1.98 | 147 | 82 | – | 0.936
Cc1cccc(C(=O)Nc2nonc2-c2cccc([N+](=O)[O-])c2)c1 [Compound 42, 3-Methyl-N-[4-(3-nitrophenyl)-1,2,5-oxadiazol-3-yl]benzamide] | 0.464 | 11.5 | 158 | 87 | – | 5.32
Cc1cccc(C(=O)Nc2nonc2-c2ccc([N+](=O)[O-])cc2)c1 [Compound 38, 3-Methyl-N-[4-(4-nitrophenyl)-1,2,5-oxadiazol-3-yl]benzamide] | – | 0.99 | – | 68 | – | 3.47
O=C(Nc1nonc1-c1ccc(Cl)cc1)c1cccc(F)c1 [Compound 46, N-[4-(4-Chlorophenyl)-1,2,5-oxadiazol-3-yl]-3-fluorobenzamide] | 1.155 | 10.1 | 180 | – | – | 11.7
O=C(Nc1nonc1-c1ccc(Cl)cc1)c1cccc(C(F)(F)F)c1 [Compound 48, N-[4-(4-Chlorophenyl)-1,2,5-oxadiazol-3-yl]-3-(trifluoromethyl)benzamide] | 0.599 | 8.44 to 17.7 | – | – | 8.44 | 5.06
O=C(Nc1nonc1-c1ccc([N+](=O)[O-])cc1)c1cccc(F)c1 [Compound 39, 3-Fluoro-N-[4-(4-nitrophenyl)-1,2,5-oxadiazol-3-yl]benzamide] | 0.809 | 5.33 | – | 43 | – | 4.31
Cc1cccc(C(=O)Nc2nonc2-c2ccc(F)cc2)c1 [Compound 49, N-[4-(4-Fluorophenyl)-1,2,5-oxadiazol-3-yl]-3-methylbenzamide] | 4.328 | – | – | 84 | – | 35.1

More lines, main results first:

S.I. = IC50 (Cyt.)/IC50 (P.f.NF54) (P. falciparum NF54) | IC50 (P. falciparum NF54; [2]) [µM] | melting point [°C] | inhibition at 10 min, 20 µM (CYP3A4) [%] | IC50 (P. falciparum NF54; [3]) [µM] | SMILES | IC50 at 72 h [1] [µM]
16.62 | 7.42 | 169 | – | – | Nc1ccc(-c2nonc2NC(=O)c2ccccc2)cc1 [Compound 55, N-[4-(4-Aminophenyl)-1,2,5-oxadiazol-3-yl]benzamide] | 123
6.107 | – | 163 | – | 32 | Nc1cccc(-c2nonc2NC(=O)c2cccc(F)c2)c1 [Compound 62, N-[4-(3-Aminophenyl)-1,2,5-oxadiazol-3-yl]-3-fluorobenzamide] | 195
15.70 | 6.83 | 159 | – | – | Cc1cccc(C(=O)Nc2nonc2-c2ccc(N)cc2)c1 [Compound 56, N-[4-(4-Aminophenyl)-1,2,5-oxadiazol-3-yl]-3-methylbenzamide] | 107
18.90 | 10.5 | 189 | – | – | Nc1ccc(-c2nonc2NC(=O)c2cccc(F)c2)cc1 [Compound 57, N-[4-(4-Aminophenyl)-1,2,5-oxadiazol-3-yl]-3-fluorobenzamide] | 198
3.548 | 9.26 | 154 | – | – | Nc1ccc(-c2nonc2NC(=O)c2cccc(C(F)(F)F)c2)cc1 [Compound 58, N-[4-(4-Aminophenyl)-1,2,5-oxadiazol-3-yl]-3-(trifluoromethyl)benzamide] | 32.9
1.201 | – | – | – | – | Nc1cccc(-c2nonc2NC(=O)c2cccc(C(F)(F)F)c2)c1 [Compound 63, N-[4-(3-Aminophenyl)-1,2,5-oxadiazol-3-yl]-3-(trifluoromethyl)benzamide] | 21.2
31.54 | 3.14 | 250 | – | – | COc1ccc(C(=O)Nc2nonc2-c2ccc(N)cc2)cc1Cl [Compound 59, N-[4-(4-Aminophenyl)-1,2,5-oxadiazol-3-yl]-3-chloro-4-methoxybenzamide] | 98.9
6.182 | 30.2 | 172 | 99 | – | Cc1cccc(C(=O)Nc2nonc2-c2cccc(N)c2)c1 [Compound 61, N-[4-(3-Aminophenyl)-1,2,5-oxadiazol-3-yl]-3-methylbenzamide] | 186
4.039 | – | 178 | – | – | Nc1cccc(-c2nonc2NC(=O)c2ccccc2)c1 [Compound 60, N-[4-(3-Aminophenyl)-1,2,5-oxadiazol-3-yl]benzamide] | 217
– | 0.323 | 261 | – | – | COc1ccc(C(=O)Nc2nonc2-c2ccc([N+](=O)[O-])cc2)cc1Cl [Compound 53, 3-Chloro-4-methoxy-N-[4-(4-nitrophenyl)-1,2,5-oxadiazol-3-yl]benzamide] | 3.35
0.932 | 5.92 | 248 | – | – | COc1ccc(C(=O)Nc2nonc2-c2cccc([N+](=O)[O-])c2)cc1Cl [Compound 54, 3-Chloro-4-methoxy-N-[4-(3-nitrophenyl)-1,2,5-oxadiazol-3-yl]benzamide] | 5.52
